The source of these data is patent US20100204295A1, “TREATMENT OF ALLERGIC DISEASE WITH IMMUNOMODULATOR COMPOUNDS” (SCICLONE PHARMACEUTICALS, INC., priority 2007, published 2010).

Structures are written as SMILES. “And” between values parts separate entries of the source, which are not always exact repeats. Equal entries are not always repeated. “Also recorded” adds a separate entry of the source.

For experiment [1], the system named is eosinophils and neutrophils in the lung tissue. Kind of experiment: Lung tissue eosinophil peroxidase (EPO) and myeloperoxidase (MPO), guinea pig model. The class given is in vivo, Dunkin-Hartley guinea pigs. How it is done: Animals were sensitized on day 0 ip with 50 mg/kg OVA. On Days 17, 18, 19, and 20, animals received an ip injection between 8 and 10 am with PBS, SCV-07 at 1 ug/kg, or SCV-07 at 10 ug/kg (Peptide treatment). Between 8 and 10 a.m. on Day 21, animals were administered peptide 2 hours before OVA or saline (NSS) aerosol challenge. 30 min before OVA or NSS aerosol challenge each animal was injected ip with an antihistamine (6.1 mg/kg pyrilamine maleate) to prevent death due to the anaphylactic response that accompanies aerosol OVA challenge. Animals were exposed to aerosol in pairs with either 1% OVA solution or NSS for 5 min in a plexiglass chamber (22×22×29 cm) using a DeVilbiss Model 35B Ultrasonic Nebulizer. Animals were observed during the total 5 min aerosolization and comments recorded. Within 22-24 hours after challenge, animals were euthanized, bled by cardiac puncture, lavaged and lung lobes removed for measurement of cellular infiltration. At the time of OVA or NSS challenge and euthanasia, animal weights ranged from approximately 350-550 g, with the average weight approximately 420 g. This experimental protocol is similar to that used in previously published studies (Regal and Fraser, 1996; Regal et al., 2000). Animals were euthanized with pentobarbital (100-200 mg/kg), bled by cardiac puncture, and lavaged with room temperature PBS. For bronchoalveolar lavage (BAL), the trachea was cannulated and 4 volumes of PBS were introduced into the tracheal cannula and gently withdrawn. Total lavage volume was 60 ml/kg. The BAL was centrifuged to sediment the cells, and the BAL cell pellet re-suspended in 1.0 ml PBS for determination of the total number of white blood cells (WBC) recovered in the BAL of each animal. The BAL supernatant was frozen at −70 C for determination of total protein recovered in the BAL supernatant using the method of Lowry et al. (1951). Total white blood cells in BAL were counted by standard methods in a hemacytometer using Turk's solution. Differential counts were obtained from cytospin preparations of BAL cells (3×10^4 cells) stained with a modified Wrights' stain (Diff Quik, American Scientific Products, McGraw Park, Ill.). Four hundred cells were counted and identified as eosinophils, neutrophils, or mononuclear cells. […] EPO activity from the homogenized lung after lavage was expressed as total OD/min from the left caudal lobe. MPO activity from the homogenized lung after lavage was expressed as total units of enzyme activity from the right caudal lobe. […] OD412 of the BAL supernatant was also determined to estimate the number of RBCS that were lysed during the lavage procedure and prior to re-suspension of the cells for counting. […]

For experiment [2], the system named is 5-FU-immune-suppressed animals. The note with it: in vivo; cited from earlier work.
Experiment [3] concerns immediate allergic reaction to OVA aerosol. Description: Immediate response to aerosol, comments recorded during aerosolization, guinea pig model. Format: in vivo, Dunkin-Hartley guinea pigs. The note with it: one animal per line, listed as SCV. How it is done:
Female Dunkin-Hartley guinea pigs (200-350 g) were purchased from Charles River, Kingston, New York facility, Barrier […]. Animals were shipped to Duluth, Minn., and held in our animal facility for 5-7 days prior to beginning the experiment. Experimental treatment groups are outlined in Table 7. Animals were sensitized on day 0 ip with 50 mg/kg OVA. On Days 17, 18, 19, and 20, animals received an ip injection between 8 and 10 am with PBS, SCV-07 at 1 ug/kg, or SCV-07 at 10 ug/kg (Peptide treatment). Between 8 and 10 a.m. on Day 21, animals were administered peptide 2 hours before OVA or saline (NSS) aerosol challenge. 30 min before OVA or NSS aerosol challenge each animal was injected ip with an antihistamine (6.1 mg/kg pyrilamine maleate) to prevent death due to the anaphylactic response that accompanies aerosol OVA challenge. Animals were exposed to aerosol in pairs with either 1% OVA solution or NSS for 5 min in a plexiglass chamber (22×22×29 cm) using a DeVilbiss Model 35B Ultrasonic Nebulizer. Animals were observed during the total 5 min aerosolization and comments recorded. Within 22-24 hours after challenge, animals were euthanized, bled by cardiac puncture, lavaged and lung lobes removed for measurement of cellular infiltration. At the time of OVA or NSS challenge and euthanasia, animal weights ranged from approximately 350-550 g, with the average weight approximately 420 g. This experimental protocol is similar to that used in previously published studies (Regal and Fraser, 1996; Regal et al., 2000). The experimenter was not blinded to the treatment. […] In general, animals sensitized and challenged with OVA and antihistamine pre-treated will not die from the allergen challenge, but will experience labored breathing and oftentimes coughing and gasping. All 7 animals in the PBS OVA treatment group had some visible reaction as expected. The remarkable finding was the number of animals in the SCV 1 OVA and SCV 10 OVA treatment groups that had no apparent reaction to the OVA aerosol. […] The obvious speculation is that SCV-07 attenuates the immediate bronchoconstriction to allergen challenge. Follow-up experiments are definitely indicated by this observation.

With `N[C@H](CCC(=O)N[C@@H](Cc1c[nH]c2ccccc12)C(=O)O)C(=O)O` [SCV-07, γ-D-glutamyl-L-tryptophan], the “Lung MPO in animals challenged with NSS aerosol” value in experiment [1] (1 ug/kg, p<0.05 vs PBS NSS control) was “significantly reduced”. Moreover, the “Change in lung EPO from NSS to OVA vs PBS treatment” value in experiment [1] (10 ug/kg, ANOVA contrast) is “greater”. Besides, the “Lung EPO in animals challenged with NSS aerosol” value in experiment [1] (10 ug/kg, p<0.05 vs PBS NSS control) is “significantly reduced”. For the same compound, the “Change in lung MPO from NSS to OVA” value in experiment [1] (ANOVA contrast vs PBS treatment) was “did not differ”. The “Effect on 5-FU-immune-suppressed animals” value in experiment [2] is on record as “strong immunostimulatory effect”. The “Comment recorded during aerosolization” value is “huddling in corner; also recorded: no rx” in experiment [3] (SCV 1 NSS: SCV-07 1 ug/kg ip, NSS aerosol); “slight cough 1x? and 1 cough?” in experiment [3] (SCV 1 OVA: SCV-07 1 ug/kg ip, OVA aerosol); “huddling in corner, no rx” in experiment [3] (SCV 10 NSS: SCV-07 10 ug/kg ip, NSS aerosol); “no rx (3×) and slight cough and 1 cough? and deeper breathing (2×)” in experiment [3] (SCV 10 OVA: SCV-07 10 ug/kg ip, OVA aerosol).
